Data taken from US11439618B2, “Compositions and methods for lowering triglycerides” (Amarin Pharmaceuticals Ireland Limited, priority 2009, dated 2022).

Experiment: Essential fatty acid (EFA) parameters in plasma and RBC, gas chromatography of fatty acid methyl esters
Assay type: in vivo, human
Method: Blood samples (10 mL) were collected at Visit 1 (screening) and at Visits 4, 5 and 6. Analysis was performed by MSR Lipid Analysis, Scottish Crop Research Institute, Dundee, UK. The screening sample acted as baseline for the EFA measurements. Lipid was extracted from plasma, serum and RBC suspensions and converted into fatty acid methyl esters which were analyzed by gas chromatography to give fatty acid profiles as micrograms fatty acid per gram of sample (μgFA/g) and normalized area percent.
RBC and plasma EFA data were collected at baseline, Day 14, 28 and 42 and summarized by visit for each treatment group. Change from baseline and percent change from baseline were also summarized. ANCOVA comparison of ethyl-EPA dose groups and ethyl-EPA versus placebo was performed.
Notable changes for these parameters occurred in the ethyl-EPA treatment groups at Days 14, 28 and 42 compared to placebo.

For CC/C=C\C/C=C\C/C=C\C/C=C\C/C=C\CCCC(=O)OCC [Ethyl-EPA, all-cis eicosa-5,8,11,14,17-pentaenoic acid ethyl ester], the “AA Mean at Baseline” value (RBC, 1 g daily group, Baseline) was 171.2 µg/g, the “DGLA Mean at Baseline” value (RBC, 1 g daily group, Baseline) was 23.0 µg/g and the “DHA Mean at Baseline” value (RBC, 1 g daily group, Baseline) was 66.5 µg/g. The “DPAn-3 Mean at Baseline” value (RBC, 1 g daily group, Baseline) was 34.1 µg/g, the “EPA Mean at Baseline” value (RBC, 1 g daily group, Baseline) was 19.8 µg/g and the “EPA/AA Mean (SD) at Baseline” value (RBC, 1 g daily group, Baseline) was 0.1 (0.07). The “AA Mean change from Baseline” value (RBC, 1 g daily, Day 14) was -8.1 µg/g, the “DGLA Mean change from Baseline” value (RBC, 1 g daily, Day 14) was -2.7 µg/g and the “DHA Mean change from Baseline” value (RBC, 1 g daily, Day 14) was -4.6 µg/g. The “DPAn-3 Mean change from Baseline” value (RBC, 1 g daily, Day 14) was 0.9 µg/g, the “EPA Mean change from Baseline” value (RBC, 1 g daily, Day 14) was 12.3 µg/g and the “EPA/AA Mean (SD) change from Baseline” value (RBC, 1 g daily, Day 14) was 0.1 (0.04). The “AA Mean change from Baseline” value (RBC, 1 g daily, Day 28) was -17.0 µg/g, the “DGLA Mean change from Baseline” value (RBC, 1 g daily, Day 28) was -3.8 µg/g and the “DHA Mean change from Baseline” value (RBC, 1 g daily, Day 28) was -6.4 µg/g. For the same compound, the “DPAn-3 Mean change from Baseline” value (RBC, 1 g daily, Day 28) was 3.3 µg/g, the “EPA Mean change from Baseline” value (RBC, 1 g daily, Day 28) was 14.5 µg/g and the “EPA/AA Mean (SD) change from Baseline” value (RBC, 1 g daily, Day 28) was 0.1 (0.05). For the same compound, the “AA Mean change from Baseline” value (RBC, 1 g daily, Day 42) was -14.2 µg/g, the “DGLA Mean change from Baseline” value (RBC, 1 g daily, Day 42) was -3.5 µg/g and the “DHA Mean change from Baseline” value (RBC, 1 g daily, Day 42) was -7.0 µg/g. The “DPAn-3 Mean change from Baseline” value (RBC, 1 g daily, Day 42) was 6.5 µg/g, the “EPA Mean change from Baseline” value (RBC, 1 g daily, Day 42) was 17.6 µg/g and the “EPA/AA Mean (SD) change from Baseline” value (RBC, 1 g daily, Day 42) was 0.1 (0.06). The “AA LS Mean, 1 or 2 g versus 4 g” value (RBC, 1 g versus 4 g) was 8.4 µg/g, the “DGLA LS Mean, 1 or 2 g versus 4 g” value (RBC, 1 g versus 4 g) was 1.5 µg/g and the “DHA LS Mean, 1 or 2 g versus 4 g” value (RBC, 1 g versus 4 g) was 1.0 µg/g. For the same compound, the “DPAn-3 LS Mean, 1 or 2 g versus 4 g” value (RBC, 1 g versus 4 g) was -6.2 µg/g, the “EPA LS Mean, 1 or 2 g versus 4 g” value (RBC, 1 g versus 4 g) was -24.4 µg/g and the “EPA/AA LS Mean, 1 or 2 g versus 4 g” value (RBC, 1 g versus 4 g) was −0.18. For the same compound, the “AA Mean at Baseline” value (RBC, 2 g daily group, Baseline) was 172.8 µg/g, the “DGLA Mean at Baseline” value (RBC, 2 g daily group, Baseline) was 23.0 µg/g and the “DHA Mean at Baseline” value (RBC, 2 g daily group, Baseline) was 64.8 µg/g. For the same compound, the “DPAn-3 Mean at Baseline” value (RBC, 2 g daily group, Baseline) was 33.2 µg/g, the “EPA Mean at Baseline” value (RBC, 2 g daily group, Baseline) was 18.9 µg/g and the “EPA/AA Mean (SD) at Baseline” value (RBC, 2 g daily group, Baseline) was 0.1 (0.06). The “AA Mean change from Baseline” value (RBC, 2 g daily, Day 14) was -3.1 µg/g, the “DGLA Mean change from Baseline” value (RBC, 2 g daily, Day 14) was -2.6 µg/g and the “DHA Mean change from Baseline” value (RBC, 2 g daily, Day 14) was -2.0 µg/g. For the same compound, the “DPAn-3 Mean change from Baseline” value (RBC, 2 g daily, Day 14) was 5.6 µg/g, the “EPA Mean change from Baseline” value (RBC, 2 g daily, Day 14) was 26.9 µg/g and the “EPA/AA Mean (SD) change from Baseline” value (RBC, 2 g daily, Day 14) was 0.2 (0.04). The “AA Mean change from Baseline” value (RBC, 2 g daily, Day 28) was -14.1 µg/g, the “DGLA Mean change from Baseline” value (RBC, 2 g daily, Day 28) was -4.5 µg/g and the “DHA Mean change from Baseline” value (RBC, 2 g daily, Day 28) was -6.2 µg/g. For the same compound, the “DPAn-3 Mean change from Baseline” value (RBC, 2 g daily, Day 28) was 9.4 µg/g, the “EPA Mean change from Baseline” value (RBC, 2 g daily, Day 28) was 32.9 µg/g and the “EPA/AA Mean (SD) change from Baseline” value (RBC, 2 g daily, Day 28) was 0.02 (0.06). For the same compound, the “AA Mean change from Baseline” value (RBC, 2 g daily, Day 42) was -18.8 µg/g, the “DGLA Mean change from Baseline” value (RBC, 2 g daily, Day 42) was -5.3 µg/g and the “DHA Mean change from Baseline” value (RBC, 2 g daily, Day 42) was -6.3 µg/g. The “DPAn-3 Mean change from Baseline” value (RBC, 2 g daily, Day 42) was 13.2 µg/g, the “EPA Mean change from Baseline” value (RBC, 2 g daily, Day 42) was 38.3 µg/g and the “EPA/AA Mean (SD) change from Baseline” value (RBC, 2 g daily, Day 42) was 0.3 (0.06). The “AA LS Mean, 1 or 2 g versus 4 g” value (RBC, 2 g versus 4 g) was 9.8 µg/g, the “DGLA LS Mean, 1 or 2 g versus 4 g” value (RBC, 2 g versus 4 g) was 1.5 µg/g and the “DHA LS Mean, 1 or 2 g versus 4 g” value (RBC, 2 g versus 4 g) was 1.0 µg/g. For the same compound, the “DPAn-3 LS Mean, 1 or 2 g versus 4 g” value (RBC, 2 g versus 4 g) was -2.5 µg/g, the “EPA LS Mean, 1 or 2 g versus 4 g” value (RBC, 2 g versus 4 g) was -11.8 µg/g and the “EPA/AA LS Mean, 1 or 2 g versus 4 g” value (RBC, 2 g versus 4 g) was −0.11. For the same compound, the “AA Mean (SD) at Baseline” value (RBC, 4 g daily group, Baseline) was 171.0 (25.17) μg/g, the “DGLA Mean at Baseline” value (RBC, 4 g daily group, Baseline) was 24.0 µg/g and the “DHA Mean at Baseline” value (RBC, 4 g daily group, Baseline) was 68.3 µg/g. The “DPAn-3 Mean at Baseline” value (RBC, 4 g daily group, Baseline) was 34.5 µg/g, the “EPA Mean at Baseline” value (RBC, 4 g daily group, Baseline) was 19.8 µg/g and the “EPA/AA Mean (SD) at Baseline” value (RBC, 4 g daily group, Baseline) was 0.1 (0.04). For the same compound, the “AA Mean (SD) change from Baseline” value (RBC, 4 g daily, Day 14) was −15.7 (26.76) μg/g, the “DGLA Mean change from Baseline” value (RBC, 4 g daily, Day 14) was -5.3 µg/g and the “DHA Mean change from Baseline” value (RBC, 4 g daily, Day 14) was -6.9 µg/g. For the same compound, the “DPAn-3 Mean change from Baseline” value (RBC, 4 g daily, Day 14) was 5.4 µg/g, the “EPA Mean change from Baseline” value (RBC, 4 g daily, Day 14) was 39.5 µg/g and the “EPA/AA Mean (SD) change from Baseline” value (RBC, 4 g daily, Day 14) was 0.3 (0.07). For the same compound, the “AA Mean (SD) change from Baseline” value (RBC, 4 g daily, Day 28) was −22.8 (29.56) μg/g, the “DGLA Mean change from Baseline” value (RBC, 4 g daily, Day 28) was -7.1 µg/g and the “DHA Mean change from Baseline” value (RBC, 4 g daily, Day 28) was -8.7 µg/g. The “DPAn-3 Mean change from Baseline” value (RBC, 4 g daily, Day 28) was 12.4 µg/g, the “EPA Mean change from Baseline” value (RBC, 4 g daily, Day 28) was 50.2 µg/g and the “EPA/AA Mean (SD) change from Baseline” value (RBC, 4 g daily, Day 28) was 0.4 (0.11). For the same compound, the “AA Mean (SD) change from Baseline” value (RBC, 4 g daily, Day 42) was −34.4 (31.44) μg/g, the “DGLA Mean change from Baseline” value (RBC, 4 g daily, Day 42) was -8.0 µg/g and the “DHA Mean change from Baseline” value (RBC, 4 g daily, Day 42) was -13.8 µg/g. The “DPAn-3 Mean change from Baseline” value (RBC, 4 g daily, Day 42) was 16.2 µg/g, the “EPA Mean change from Baseline” value (RBC, 4 g daily, Day 42) was 52.5 µg/g and the “EPA/AA Mean (SD) change from Baseline” value (RBC, 4 g daily, Day 42) was 0.4 (0.14). For the same compound, the “Difference in EPA, AA (RBC only), DPAn-3, DGLA (1 g only for plasma) and EPA/AA ratio levels, 4 g compared to 1 g and 2 g” value (plasma and RBC, LS means, p≤0.05) was “significantly (LS means, p≤0.05) different”.
